Key:
S.aureus = experiment: Dead/live assay, biocidal activity against S.aureus; format: cell-based
Procedure: Dead/live assays were performed to test the biocidal activity of EO-OPE-1(C3, A), EO-OPE-1 (C2, A), EO-OPE-1 (C3, S) and EO-OPE-1 (Th, C3, A) against E.coli, S.epidermis, and S.aureus. E.coli, S.epidermis, and S.aureus were cultured in 50 mL of Difco™ Nutrient broth (LOT 4057492, Becton, Dickinson and Company, Sparks, Md. 21152 USA), Difco™ Nutrient broth (LOT 4057492, Becton, Dickinson and Company, Sparks, Md. 21152 USA), and BBL™ Brain Heart Infusion (LOT 8263271, Becton, Dickinson and Company, Sparks, Md. 21152 USA), respectively, for 18 h at 37° C. under shaking. The bacteria were collected by centrifuging 50 mL of culture at 4,000 rpm in an Eppendorf centrifuge for 15 min at 4° C. The pellet was re-suspended with the assistance of vortex in 25 mL of 0.85% NaCl solution and repelleted. The wash cycle was repeated twice. Bacterial concentrations were measured and normalized using a disposal hemocytometer (INCYTO Co., Ltd), counts being 2.5˜3.0×10^7/mL. The diluted bacteria suspension was added to 1.5 mL of black and transparent microtubes in aliquots of 500 μL for dark and light samples, respectively. Three groups of live controls were prepared with cells suspended in black microtubes, transparent microtubes, and quartz cuvettes at the same concentrations, but without chemicals. These bacteria samples were titrated by OPEs with various concentrations followed by staying in dark for dark samples/controls and exposing to UV irradiation in a photoreactor chamber for light samples/controls with certain duration.
Dead/live assays were carried out using two sets of stains: SYTO 9/Propidium iodide for E.coli and SYTO 24/Propidium iodide for S.epidermis and S.aureus. SYTO 9 and SYTO 24 are cell membrane permeant nucleic acid stains with green (˜498 nm for SYTO 9 and ˜515 nm for SYTO 24) fluorescence and used to stain both live and dead cells; Propidium iodide is a red-fluorescent nucleic acid stain that is membrane impermeable to viable cells but stains DNA or RNA of dead cells with comprised membranes and emits red (˜617 nm) fluorescence, indicating cell death. Upon the completion of the above treatment, a 1 to 1 ratio mixture of the two dyes was prepared and added into the samples (2.4 μL mixed dyes for 500 μL suspension) and incubated for 15 minutes in the dark. Bacteria were then examined under a 40× oil objective on a Zeiss LSM 510 Meta confocal laser scanning microscope and an Accuri C6 flow cytometer to identify and quantify those live and dead bacteria.
Experiments similar to those described in Example 1 above were performed using TM and OPE1-DABCO against S. Aureus. FIG. 22 is a graph showing TM vs. 7×10^7/mL S. aureus under light and dark conditions at concentrations of 0.1 and 1 μg/mL and at various time points (5, 10, 15, 30, 45, and 60 minutes). FIG. 23 is a graph showing EO-OPE1-DABCO vs 6×10^7/mL S. aureus under light and dark conditions at different concentrations of 0.1, 1, and 5 μg/mL and at various time points. FIG. 24 is a graph showing EO-OPE1-DABCO vs S. Aureus under light and dark conditions at a concentration of 1 μg/mL and at various time points. FIG. 25 is a graph showing EO-OPE1-DABCO vs S. Aureus under light and dark conditions at different concentrations of 0.1 and 1 μg/mL and at various time points.

bacteriophage T4 = experiment: Phage inactivation, phage titer (PFU), T4; format: cell-based; settings: 10 ug/ml, in the dark, 1 hour
Procedure: Bacteriophage Preparation and Titer. E. coli cells were grown in the standard Luria broth. The fresh E. coli culture was inoculated from an overnight culture followed by approximately three hours incubation at 37° C. to the exponential growth phase (O.D.600˜0.5). At this growth phase, the E. coli cells were collected by centrifuge and washed with Escherichia coli minimal medium (Glucose 5 g/L, Na2HPO4 6 g/L, KH2PO4 3 g/L, NH4Cl 1 g/L, NaCl 0.5 g/L, MgSO4, 0.12 g/L, CaCl2 0.01 g/L, pH 7.2) twice. The cell pellet was resuspended with minimal medium. The phage stock solutions were added into their corresponding bacterial host suspensions the phage-bacteria mixture incubated for 15 minutes at 37° C. for infection. The phage-bacteria mixture was transferred into fresh Escherichia coli minimal medium and incubated overnight for viral replication. […] The phage titer was determined by plaque forming units (PFU). […] After 6˜8 hours incubation, the plaque forming units were counted and phage solutions were diluted to 10^6˜10^7 PFU/ml with the minimal medium for further use.
Phage Inactivation. […] The viral inactivation ability was determined by phage titer as stated above and calculated by log (N0/N), where N is the PFU of the phage solution after exposure to CPEs/OPEs; N0 represents the PFU of corresponding negative control (without CPEs, OPEs or UV-irradiation). […]

Q: With C[N+](C)(C)CCCOc1ccc(C#Cc2ccc(C#Cc3ccc(OCCC[N+](C)(C)C)cc3)s2)cc1.[I-].[I-] [EO-OPE-1 (Th, C3, A)] as the compound, how does the “log killing against S. aureus” value (S.aureus; concentration as low as 5 ng/mL, half hour irradiation) read?
A: 5 log

Q: And the “killing of S. aureus” value (S.aureus; under 365 nm radiation)?
A: kill

Q: What about the “dark antiviral activity against T4 phage” value (bacteriophage T4) of the same compound?
A: significant dark antiviral activity

— patent US10092000B2, “Structure, synthesis, and applications for oligo phenylene ethynylenes (OPEs)” (STC.UNM, priority 2010, dated 2018)
